The values below come from ChEMBL document CHEMBL5614433, “The "Doorstop Pocket" In Thioredoxin Reductases─An Unexpected Druggable Regulator of the Catalytic Machinery” (J Med Chem, 2024).

For orientation: IC50 means the concentration that gives 50% inhibition. One may read the inhibition as how much of the control response was suppressed.

Data set [1] in a line: Inhibition of human TrxR1 incubated for 6 hrs in presence of NADPH.
The target of data set [2] is T1, Thioredoxin glutathione reductase (Schistosoma mansoni) (UniProt Q962Y6).
T1 sequence (whole entry): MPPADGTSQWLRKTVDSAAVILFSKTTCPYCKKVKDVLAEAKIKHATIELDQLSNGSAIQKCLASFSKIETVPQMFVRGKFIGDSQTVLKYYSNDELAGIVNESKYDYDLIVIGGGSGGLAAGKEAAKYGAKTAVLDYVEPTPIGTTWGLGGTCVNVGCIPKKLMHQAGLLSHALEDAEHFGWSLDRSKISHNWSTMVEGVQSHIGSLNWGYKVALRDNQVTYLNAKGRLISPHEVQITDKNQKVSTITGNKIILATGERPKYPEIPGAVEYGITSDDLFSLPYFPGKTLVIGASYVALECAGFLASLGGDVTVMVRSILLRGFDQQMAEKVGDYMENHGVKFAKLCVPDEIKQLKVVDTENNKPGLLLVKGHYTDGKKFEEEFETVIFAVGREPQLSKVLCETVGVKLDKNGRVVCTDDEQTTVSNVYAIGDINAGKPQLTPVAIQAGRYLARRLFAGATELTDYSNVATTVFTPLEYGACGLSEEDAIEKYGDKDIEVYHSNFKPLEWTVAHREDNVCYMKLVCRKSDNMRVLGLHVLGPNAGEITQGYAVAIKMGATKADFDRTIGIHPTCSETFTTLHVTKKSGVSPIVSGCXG
Nature of the data set: Inhibition of Schistosoma mansoni TGR at 66.7 uM incubated for 6 hrs in presence of NADPH.

The nature of data set [3]: Inhibition of human TrxR1 incubated for 15 mins in presence of NADPH.
Data set [4] in a line: Inhibition of human TrxR1.
Data set [5] is described as follows: Cytotoxicity against african green monkey Vero cells measured after 24 hrs. The class given is toxicity, cell-based. Conditions: chlorocebus sabaeus, read-out: LD50.
Another data set has as its system Schistosoma mansoni. Nature of the data set: Schistosomicidal-activity against Schistosoma mansoni adult worm measured after 24 hrs. The class given is functional. Conditions: read-out: LD50 (the source's name).
Data set [6] can be described thus: Selectivity ratio of IC50 for human TrxR1 to IC50 for Schistosoma mansoni TGR.
Data set [7] deals with T2, Thioredoxin glutathione reductase (Schistosoma mansoni, UniProt Q962Y6).
T2 sequence (Q962Y6 whole entry): T1 sequence (whole entry)
Kind of data set: Inhibition of Schistosoma mansoni TGR incubated for 15 mins in presence of NADPH.

As to `Cc1oc(C2CCCCC2)nc1CN[C@@H]1C[C@@H]2C[C@H]([C@H]1C)C2(C)C`, the IC50 in data set [1] is above 19 µM. The inhibition in data set [2] was 28.7%.

In the case of `C[C@@H]1[C@H]2C[C@@H](C[C@H]1NCc1nc3ccccc3n1C1CCCCCC1)C2(C)C`, the IC50 in data set [3] turned out to be 4.9 µM.

For `Cc1oc(-c2ccccc2)nc1CN[C@@H]1C[C@@H]2C[C@H]([C@H]1C)C2(C)C`, the IC50 in data set [1] was above 19 µM. Further, in data set [2], the inhibition was found to be 28.7%.

`O=C(Nc1ccc(Cl)cc1)c1ccc([N+](=O)[O-])o1`: 3.8 µM corresponded to half-maximal inhibition in data set [4] (IC50).

Turning to `C#CCN(Cc1nc(-c2ccccc2)oc1C)C1C[C@@H]2C[C@H]([C@H]1C)C2(C)C` (stereo partly drawn), the IC50 was above 66.7 µM in data set [3] and 2.5 µM in data set [7]. The CC50 at 24 h in data set [5] is above 100 µM. Also, in the data set with Schistosoma mansoni, the LC50 is 15.7 µM. Further, the Ratio IC50 in data set [6] came out at 25.

Take `Cc1oc(-c2ccc3c(c2)OCO3)nc1CN[C@@H]1C[C@@H]2C[C@H]([C@H]1C)C2(C)C`: the half-inhibitory concentration (IC50) in data set [1] is above 19 µM. The inhibition in data set [2] turned out to be 28.7%.

In the case of `C[C@@H]1[C@H]2C[C@@H](C[C@H]1NCc1cn([C@@H]3OC[C@@H](O)[C@H](O)[C@H]3O)c3ccccc13)C2(C)C`, the IC50 in data set [7] came to 57.5 µM.

For the compound `CCc1ccccc1-c1nc(CN[C@@H]2C[C@@H]3C[C@H]([C@H]2C)C3(C)C)c(C)o1`, the IC50 in data set [1] is above 19 µM. In data set [2], the inhibition stood at 28.7%.

As for `Cc1oc(-c2ccc3ccccc3c2)nc1CNC1CCCCCC1`, the IC50 in data set [1] is above 19 µM. The inhibition in data set [2] was found to be 28.7%.
